Reference: US7259276B2, “Polyenecarboxylic acid derivatives, processes for preparing them, and their use” (Sanofi-Aventis Deutschland GmbH, priority 2002, dated 2007)

How the values were obtained:
[1] = molecular target: glycosyltransferase (PBP 1b) (Escherichia coli, UniProt P02919); assay: glycosyltransferase assay: displacement of 3H-moenomycin from the glycosyltransferase (PBP 1b)/3H-moenomycin complex; format: binding; conditions: displacement of 3H-moenomycin from PBP 1b; read-out: inhibitory constants (IC50 values) in the glycosyltransferase assay
Description: Table 1 summarizes, by way of example, the inhibitory concentrations (IC50) of some compounds of the invention. A special test system was used for finding glycosyltransferase inhibitors that are specific and very effective. This system uses a glycosyltransferase/^3H-moenomycin complex, which is brought into contact with substances that are to be tested. The determination of the GT-inhibitory effect is based on the displacement of radioactively labeled moenomycin A from the glycosyltransferase (PBP 1b)/^3H-moenomycin complex, it being possible to separate the released ^3H-moenomycin, as a soluble compound, from the fixed complex and to measure the remaining radioactivity using a Geiger counter.
The assay was carried out as described by Vollmer & Höltje (Antimicrobial Agents and Chemotherapy 2000, 44, 1181-1185), except that purified penicillin-binding protein 1b (PBP 1b; 5 pM), carrying ^3H-labeled moenomycin at the glycosyltransferase site, was used in the present example instead of [3H]benzylpenicillin. ^3H-Moenomycin was obtained from moenomycin A (Kurz et al., Eur. J. Biochem., 1998, 252, 500-507) by hydrogenating it with ^3H2:
6 mg of moenomycin, dissolved in 300 μL methanol, were added to a 1 cm^3 flask, after which 2 mg of palladium-charcoal (Degussa Type E10N/D) were added. The flask was then gassed, while excluding air, with 1 cm^3 3H2; and the reaction solution was left to hydrogenate for 15 minutes. After the reaction had come to an end, the catalyst was filtered off from the reaction mixture, which was diluted to 100 mL with ethanol. This solution can be used directly for preparing the glycosyltransferase/^3H-moenomycin complex. Total radioactivity of the reaction product: 6.56 GBq (177 mCi); specific activity: 1.9 TBq/mmol. The radioactive complex was attached to SPA PVT Copper His-Tag beads. The radioactive moenomycin that was displaced by the inhibitors was measured. • SPA PVT Copper His-Tag beads: Amersham RPN 0095; • PBS: GIBCO BRL 14200-067; • BSA: Calbiochem 12657; • NOG: SIGMA O-8001 (n-octyl β-D-glucopyranoside); • Tween 20: Acros 23336-067; • Microtiter plates: Greiner Labortechnik.
The determination was carried out in microtiter plates. 10 μL of the test solution were added to the microtiter plates, followed by 10 μL of ^3H-moenomycin (25 nM, 3.1 kBq/well) and 40 μL of SPA beads loaded with PBP 1b (100 μg of beads, 45 nM enzyme). The plates were sealed and left to stand at room temperature for 8 hours. After that, the beads were separated off from the test solution by centrifuging for 3 minutes at 1300 rpm. The distribution of the radioactivity was measured in a WALLAC MicroBeta® 1450 Counter.
The inhibitory values were calculated in accordance with the formula: [1−(cpmsample−cpmlow ctr)/(cpmhigh ctr−cpmlow ctr)]×100(%).

[2] = solubility (description of the substance); format: physicochemical; conditions: for solubility in organic solvents: medium-polar and polar organic solvents
[3] = stability (description of the substance); format: physicochemical; conditions: for stability in solution depending on pH: neutral, mildly acidic, strongly acidic, strongly alkaline media
[4] = cited from earlier work
[5] = tested on: Bacillus subtilis; conditions: against Bacillus subtilis; cited from earlier work

Chain of glycosyltransferase (PBP 1b) (P02919 whole entry): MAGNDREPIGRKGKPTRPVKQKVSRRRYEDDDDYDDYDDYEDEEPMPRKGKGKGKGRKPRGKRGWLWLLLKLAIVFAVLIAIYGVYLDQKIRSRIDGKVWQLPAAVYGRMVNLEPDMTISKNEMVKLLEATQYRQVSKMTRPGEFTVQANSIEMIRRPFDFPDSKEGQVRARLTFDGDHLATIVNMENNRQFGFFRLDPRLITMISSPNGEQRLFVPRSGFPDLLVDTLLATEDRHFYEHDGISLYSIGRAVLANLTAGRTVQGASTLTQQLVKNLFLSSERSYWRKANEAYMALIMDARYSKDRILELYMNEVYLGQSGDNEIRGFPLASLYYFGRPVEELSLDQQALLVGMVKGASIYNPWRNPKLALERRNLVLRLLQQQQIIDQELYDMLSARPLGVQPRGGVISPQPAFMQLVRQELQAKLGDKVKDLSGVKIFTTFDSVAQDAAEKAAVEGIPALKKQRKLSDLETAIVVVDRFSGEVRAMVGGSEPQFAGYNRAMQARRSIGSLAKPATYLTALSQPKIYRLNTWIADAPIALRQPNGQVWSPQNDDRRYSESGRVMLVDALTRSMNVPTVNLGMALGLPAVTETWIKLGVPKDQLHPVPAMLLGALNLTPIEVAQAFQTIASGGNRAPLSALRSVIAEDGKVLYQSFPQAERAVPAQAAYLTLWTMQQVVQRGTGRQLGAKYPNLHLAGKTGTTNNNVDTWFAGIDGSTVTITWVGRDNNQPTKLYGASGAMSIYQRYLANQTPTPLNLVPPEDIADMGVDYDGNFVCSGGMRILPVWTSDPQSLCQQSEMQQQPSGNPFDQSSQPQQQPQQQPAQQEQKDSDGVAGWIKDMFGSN

| Molecule | IC50 [1] | solubility in organic solvents [2] | solubility in water [2] | sensitivity to light and air [3] | stability in solution depending on pH [3] | absorption from the gastrointestinal tract [4] | antibiotic effect [5] |
| --- | --- | --- | --- | --- | --- | --- | --- |
| CC(O)C(O)/C=C/C=C/C=C/c1ccccc1/C=C/C=C/C(=O)O (stereo not drawn) [serpentemycin D] | 19 µM | soluble in medium-polar and polar organic solvents | not particularly soluble in water | sensitive to light and air | stable in neutral and mildly acidic media but unstable in strongly acidic and strongly alkaline solution | – | – |
| O=C(O)/C=C/C=C/C=C\c1ccccc1/C=C/C=C/C(=O)O [serpentemycin B] | 0.1 µM | soluble in medium-polar and polar organic solvents | not particularly soluble in water | sensitive to light and air | stable in neutral and mildly acidic media, but unstable in strongly acidic and strongly alkaline solution | – | – |
| moenomycin | – | – | – | – | – | not absorbed from the gastrointestinal tract | – |
| O=C(O)/C=C/C=C\C=C\C=C/c1ccccc1/C=C/C=C/C(=O)O [serpentemycin A] | 0.2 µM | soluble in medium-polar and polar organic solvents | not particularly soluble in water | sensitive to light and air | stable in neutral and mildly acidic media but unstable in strongly acidic and strongly alkaline solution | – | – |
| C/C=C/C=C\C=C\C=C/c1ccccc1/C=C/C=C/C(=O)O [serpentene, reference compound] | 18 µM | – | – | – | – | – | weak antibiotic effect |
